Data from patent publication US12496460B2, “System and method for quantitative dosimetry of photodynamic therapy in skin” (Trustees of Dartmouth College, priority 2020, dated 2025).

Columns and labels:
[1] = test system: PpIX fluorescence at AK treatment sites; conditions: human, in vivo
Experimental: Example 2—Human Skin Test Measurement: In this human testing, the system's 100 performance was evaluated on three patients undergoing their standard clinical PDT treatment at the Dartmouth-Hitchcock Dermatology Department for treatment of AKs using Levulan® (Sun Pharma Industries Ltd., Mumbai, India), a 20% ALA solution [see FIG. 2A]. […] The standard procedure involves treatment of a site (e.g. face, scalp, arms, or legs) which is cleaned using ethanol and followed by non-occluded topical application of the ALA; the patient is then transferred to a low-light rest area for a 60-minute incubation period. […] Fluorescence images from a treatment site are gathered before the ALA is applied, at the 60-minute incubation, and post-PDT treatment [see FIG. 2B]. Discomfort levels experienced by the imaged patients were recorded during light irradiation via verbal rating of the pain. The goal of performing dosimeter imaging using the system 100 during treatment is to correlate the measured PpIX accumulation and PDT-induced photobleaching to patient outcomes and generate thresholds that can be used for individualized treatment guidance [see FIG. 2C]. […] Images were pre-processed using Adobe DNG Converter software and analyzed using MATLAB and ImageJ to extract the RAW pixel values. […]

[2] = test system: PpIX accumulation in athymic nude mice; conditions: mouse, in vivo
Experimental: Example 1—Preclinical In-vivo Murine Measurements: The nude mouse model was used to examine the system's 100 ability to capture in-vivo production of PpIX. The measurements were performed on five athymic nude mice fed a low-chlorophyll diet to minimize tissue autofluorescence. For imaging, the mice were placed under anesthesia and onto a heated pad to regulate their body temperature; the temperature was monitored using an IR camera (TG165, FLIR Systems Inc.) and kept in the 32° C.-36° C. range. AMELUZ® (Biofontera Inc., Boston, MA), a 10% aminolevulinic acid hydrochloride gel, was topically applied to the backs of the mice as to contain an ALA-applied area and a control area within the field-of-view of the system 100. The mice were kept in a low-light environment to prevent photobleaching of the accumulated PpIX. Images of the mice were taken at 10-minute intervals for the first hour with subsequent images at two and three hours of incubation. The mice were kept under anesthesia during the first hour, placed back in the cage, and briefly placed back under anesthesia for imaging at two and three hours of incubation. The imaging parameters used for these measurements were iOS-generated images with ISO 400 and exposure set to 1/10th sec. The images were processed in ImageJ, where the red pixels were isolated for region-of-interest (ROI) pixel intensity calculation.
In this murine model, it was possible to quantitatively observe the PpIX accumulation in the ALA-applied area as early as 10 minutes with a clear visual accumulation in the 20-30 minute timeframe. In contrast, the control region was relatively flat for the first hour with a moderate increase in fluorescence observed at the two hour and three hour measurements as the mice begin systematic accumulation of the PpIX.

- average pixel value (PpIX fluorescence) at 60 min incubation [1]: 21.1±6.1
- time at which PpIX accumulation is quantitatively observed in the ALA-applied area ([2]; athymic nude): 10 min
- timeframe of clear visual PpIX accumulation ([2]; athymic nude): 20 to 30 min
- course of PpIX fluorescence over the three hours of incubation [2]: monotonic increase
SMILES: NCC(=O)CCC(=O)O [ALA, aminolevulinic acid]
